Experimental data published in the supplement of paper PMC5908809.

Experiments:
[1] = tested on: normal NK cells expanded with K562-aAPC; experiment: drug sensitivity score (DSS) (DSS units); higher = more sensitive; extreme values may be limits of the assay; conditions: 72 h; IL-2 2.5 ng/mL
Method: (§1)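 Drug sensitivity and resistance testing on K562-aAPC-expanded normal NK cells: 5 concentrations (10-fold steps over a 10,000-fold range), 72 h at 37 °C, viability by CellTiter-Glo normalised to DMSO and benzethonium chloride controls; DSS from the fitted curve.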

[2] = tested on: YT (IL-2 2.5 ng/mL); experiment: percent inhibition of viability; higher = more inhibition; conditions: 72 h
[3] = tested on: KHYG-1 (IL-2 2.5 ng/mL); experiment: as above; conditions: 72 h
[4] = tested on: normal primary NK cells, pool 2 (3 donors) (IL-2 2.5 ng/mL); experiment: as above; conditions: 72 h
[5] = tested on: NK-YS (IL-2 2.5 ng/mL); experiment: as above; conditions: 72 h
[6] = tested on: normal primary NK cells, pool 1 (3 donors), resting (IL-2 0 ng/mL); experiment: as above; conditions: 72 h
[7] = tested on: normal primary NK cells, pool 3 (3 donors) (IL-2 2.5 ng/mL); experiment: as above; conditions: 72 h
[8] = tested on: KAI3 (IL-2 2.5 ng/mL); experiment: as above; conditions: 72 h
[9] = tested on: NK-92 (IL-2 2.5 ng/mL); experiment: as above; conditions: 72 h
[10] = tested on: DERL-7 (IL-2 2.5 ng/mL); experiment: as above; conditions: 72 h
[11] = tested on: NKL (IL-2 2.5 ng/mL); experiment: as above; conditions: 72 h
[12] = tested on: normal primary NK cells, pool 1 (3 donors) (IL-2 2.5 ng/mL); experiment: as above; conditions: 72 h
[13] = tested on: IMC-1 (IL-2 20 ng/mL); experiment: as above; conditions: 72 h
[14] = tested on: SNK-6 (IL-2 2.5 ng/mL); experiment: as above; conditions: 72 h
[15] = tested on: YT (IL-2 2.5 ng/mL); experiment: drug sensitivity score (DSS) (DSS units); higher = more sensitive; extreme values may be limits of the assay; conditions: 72 h
[16] = tested on: KHYG-1 (IL-2 2.5 ng/mL); experiment: as above; conditions: 72 h
[17] = tested on: normal primary NK cells, pool 2 (3 donors) (IL-2 2.5 ng/mL); experiment: as above; conditions: 72 h
[18] = tested on: NK-YS (IL-2 2.5 ng/mL); experiment: as above; conditions: 72 h
[19] = tested on: normal primary NK cells, pool 1 (3 donors), resting (IL-2 0 ng/mL); experiment: as above; conditions: 72 h
[20] = tested on: normal primary NK cells, pool 3 (3 donors) (IL-2 2.5 ng/mL); experiment: as above; conditions: 72 h
[21] = tested on: KAI3 (IL-2 2.5 ng/mL); experiment: as above; conditions: 72 h
[22] = tested on: NK-92 (IL-2 2.5 ng/mL); experiment: as above; conditions: 72 h
[23] = tested on: DERL-7 (IL-2 2.5 ng/mL); experiment: as above; conditions: 72 h
[24] = tested on: NKL (IL-2 2.5 ng/mL); experiment: as above; conditions: 72 h
[25] = tested on: normal primary NK cells, pool 1 (3 donors) (IL-2 2.5 ng/mL); experiment: as above; conditions: 72 h
[26] = tested on: IMC-1 (IL-2 20 ng/mL); experiment: as above; conditions: 72 h
[27] = tested on: SNK-6 (IL-2 2.5 ng/mL); experiment: as above; conditions: 72 h
[28] = tested on: normal NK cells expanded with K562-aAPC; experiment: percent inhibition of viability; higher = more inhibition; conditions: 72 h, IL-2 2.5 ng/mL
Method: as §1

COC(=O)C[C@](O)(CCCC(C)(C)O)C(=O)O[C@@H]1C(OC)=C[C@]23CCCN2CCc2cc4c(cc2[C@H]13)OCO4 [Omacetaxine] (max concentration tested 10000 nM)
Conditions	drug sensitivity score
[1]	31.6
[15]	33.7
[16]	29.9
[17]	38.4
[18]	30.6
[19]	43.6
[20]	35.4
[21]	37.1
[22]	31.6
[23]	37.8
[24]	30.8
[25]	38.4
[26]	30.1
[27]	38.8

percent inhibition of viability [%]
Conditions	1 nM	10 nM	100 nM	1000 nM	10000 nM
[2]	-7.92	19.8	98.2	107	108
[3]	-7.86	-9.89	102	106	107
[4]	4.96	73.8	93.2	93.8	95.3
[5]	1.36	1.43	100	105	108
[6]	39.6	89.8	90.3	89.8	91.4
[7]	9.72	46.5	96.3	97.1	99.5
[8]	29.6	46.7	101	105	106
[9]	1.68	7.27	100	106	108
[10]	5.07	60.5	100	101	101
[11]	3.97	2.74	99.8	107	108
[12]	1.78	69	96.7	96.5	99
[13]	-8.96	-3.07	99.7	101	101
[14]	0.3	72.3	95.2	95.4	99.9
[28]	3.7	16	93.1	101	101

COc1ncc(-c2ccc3nccc(-c4ccnnc4)c3c2)cc1NS(=O)(=O)c1ccc(F)cc1F [Omipalisib] (max concentration tested 1000 nM)
Conditions	drug sensitivity score
[1]	10.6
[15]	13.7
[16]	9.7
[17]	7.36
[18]	11.7
[19]	6.75
[20]	2.64
[21]	12.9
[22]	14.8
[23]	21
[24]	11.4
[25]	5.18
[26]	0.6
[27]	7.24

percent inhibition of viability [%]
Conditions	0.1 nM	1 nM	10 nM	100 nM	1000 nM
[2]	-0.94	1.51	27.5	54.4	79.8
[3]	1.89	1.24	8.6	40.2	91.6
[4]	-6.47	2.05	24.7	24.7	47.5
[5]	-0.6	1.69	13.2	53.7	73.3
[6]	2.21	9.83	13.8	26.6	49.1
[7]	-11.3	-2.43	7.07	5.39	36.4
[8]	2.3	36.1	15.3	35.5	62.9
[9]	3.62	20.4	32.1	48.6	69.9
[10]	1.39	16.9	45.5	77.3	95.7
[11]	-9.37	0.19	6.59	54.9	80.4
[12]	-10	-4.5	18.5	20.1	40
[13]	-0.58	-1.71	-11.8	-32.5	29.1
[14]	8.44	2.37	-0.31	30.5	61.5
[28]	3.51	3.67	20.4	44.6	55.5

Cc1[nH]c(/C=C2\C(=O)Nc3ccccc32)c(C)c1CCC(=O)O [Orantinib] (max concentration tested 10000 nM)
Conditions	drug sensitivity score
[1]	0
[15]	1.23
[16]	0.65
[17]	0
[18]	1.86
[19]	3.33
[20]	0
[21]	2.32
[22]	0.62
[23]	0
[24]	0.67
[25]	0
[26]	0.04
[27]	0

percent inhibition of viability [%]
Conditions	1 nM	10 nM	100 nM	1000 nM	10000 nM
[2]	-3.34	1.08	0.41	8.54	18.7
[3]	-7.11	-2.97	-4.54	8.46	13.8
[4]	-0.89	-3.13	6.7	-0.82	5.48
[5]	-6.4	-2.5	-1.18	7.48	23.9
[6]	-0.49	20.7	11.4	12.2	21.7
[7]	-4.8	2.21	11.9	-1.68	9.39
[8]	0.42	1.13	-2.39	7	29.4
[9]	-10.9	-1.51	-13.1	11.1	13
[10]	1.12	-2.21	-6.87	-10.2	-8.27
[11]	-19.2	-18.2	-1.7	6.18	14.6
[12]	-0.7	9.63	7.39	4.16	9.93
[13]	-7.71	-4.44	-5.94	1.86	11
[14]	-0.4	10.2	3.89	15.8	-2.27
[28]	-1.66	-4.19	-1.4	6.04	9.43

CN1CCN(c2cc(C(=O)Nc3ccc4c(c3)-c3c(c(C(N)=O)nn3-c3ccc(F)cc3)CC4)c(Cl)cn2)CC1 [PHA 408] (max concentration tested 10000 nM)
Conditions	drug sensitivity score
[1]	8.3
[15]	8.22
[16]	5.88
[17]	7.73
[18]	6.95
[19]	7.64
[20]	6.27
[21]	11.6
[22]	7.75
[23]	10.1
[24]	9.11
[25]	6.64
[26]	5.9
[27]	9.12

percent inhibition of viability [%]
Conditions	1 nM	10 nM	100 nM	1000 nM	10000 nM
[2]	-7.69	-3.99	-2.06	15.8	104
[3]	-10.4	-8.63	-10.2	-0.31	104
[4]	1.04	-1.49	11.9	13	101
[5]	-12.4	-7.83	-4.48	7.91	103
[6]	18.8	21.2	14.8	12.5	100
[7]	1.98	1.33	13.2	4.36	101
[8]	-0.05	1.36	9.21	50.4	101
[9]	-21	-16.1	-4.02	12.9	102
[10]	-1.3	0.79	2.16	31.9	101
[11]	-18.1	-8.26	-5.06	22.7	103
[12]	-10.8	-7.07	1.01	6.7	101
[13]	-8.52	-6.11	-8.53	2.74	99.6
[14]	-17.6	-11.2	0.21	22.9	100
[28]	-8.15	-10.8	-1.64	16.7	101

CC(=O)c1c(C)c2cnc(Nc3ccc(N4CCNCC4)cn3)nc2n(C2CCCC2)c1=O [Palbociclib] (max concentration tested 10000 nM)
Conditions	drug sensitivity score
[1]	7.9
[15]	6.16
[16]	16.8
[17]	4
[18]	9.09
[19]	2.9
[20]	3.41
[21]	3.18
[22]	5.65
[23]	8.89
[24]	9.37
[25]	3.66
[26]	6.58
[27]	0

percent inhibition of viability [%]
Conditions	1 nM	10 nM	100 nM	1000 nM	10000 nM
[2]	2.18	0.66	6.83	31.3	37
[3]	-0.2	2.78	14.7	81.5	91.9
[4]	-10.6	-5.61	1.26	2.75	66.1
[5]	2.65	4.48	17.3	37.1	61.5
[6]	6.42	-17.5	-3.52	-17	68.2
[7]	-13.2	-11.6	6.3	-3.24	67
[8]	-3.55	-10.6	-0.36	0.62	57.6
[9]	6.01	-5.34	15.5	12.9	65.7
[10]	-8.16	4.2	8.47	32.2	90.9
[11]	-10.3	-8.16	-14.5	25	104
[12]	-11.6	-7.3	-7.79	-6.34	74.7
[13]	-2.52	-7.06	-2.86	6.43	101
[14]	27.7	15.6	28.3	9.56	32.5
[28]	1.29	2.27	11	16.3	94.1
